According to ChEMBL document CHEMBL3885861, “Open TG-GATES”:

Species on record: Rattus norvegicus
Test: Open TG-GATES - Regimen: Single
Type: toxicity, organism-based, Sprague-Dawley
Parameters: regimen Single, gender Male, age 6 weeks
Conditions: in vivo, po, route gavage; for gamma-GTP / ALP / ALT / AST / BUN / CRE / Ca / DBIL / GLC / K / LDH / Na / PL / RALB / TBIL / TC / TG / TP / IP: tissue Plasma; for APTT / Bas / Eos / Fbg / Hb / Ht / Lym / MCH / MCHC / MCV / Mono / Neu / PT / RBC / Ret / WBC / Plat: tissue Blood; for KIDNEY_L / KIDNEY_R / KIDNEY_TOTAL: tissue Kidney; for LIVER: tissue Liver
[1] = 100 mg/kg, 3 h, dose level High
[2] = 100 mg/kg, 6 h, dose level High
[3] = 100 mg/kg, 9 h, dose level High
[4] = 100 mg/kg, 24 h, dose level High

CSc1ccc2c(c1)N(CCC1CCCCN1C)c1ccccc1S2 (stereo not drawn) [THIORIDAZINE]
gamma-GTP (30 mg/kg, 24 h, dose level Middle): 1 IU/L
TERMINAL_BW [1]: 217.7 g
APTT [1]: 16.7 s
Bas [1]: 0%
Eos [1]: 1%
Fbg [1]: 205.2 mg/dL
Hb [1]: 12.6 g/dL
Ht [1]: 38.2%
Lym [1]: 70.2%
MCH [1]: 21.9 pg
MCHC [1]: 33.1%
MCV [1]: 66.3 fL
Mono [1]: 11%
Neu [1]: 17.8%
PT [1]: 12.2 s
RBC [1]: 576.8 x10_4/ul
Ret [1]: 8.6%
WBC [1]: 56.2 x10_2/uL
KIDNEY_L [1]: 1 g
KIDNEY_R [1]: 1 g
KIDNEY_TOTAL [1]: 2 g
LIVER [1]: 10.5 g
ALP [1]: 990.6 IU/L
ALT [1]: 41.8 IU/L
AST [1]: 70.2 IU/L
BUN [1]: 11.2 mg/dL
CRE [1]: 0.6 mg/dL
Ca [1]: 11 mg/dL
DBIL [1]: 0.018 mg/dL
GLC [1]: 215 mg/dL
K [1]: 4.2 meq/L
LDH [1]: 163.8 IU/L
Na [1]: 139.8 meq/L
PL [1]: 138.2 mg/dL
RALB [1]: 3.7 g/dL
TBIL [1]: 0.3 mg/dL
TC [1]: 80.2 mg/dL
TG [1]: 34.4 mg/dL
TP [1]: 5.3 g/dL
gamma-GTP [1]: 1 IU/L
TERMINAL_BW [2]: 215 g
APTT [2]: 16.9 s
Bas [2]: 0%
Eos [2]: 0.6%
Fbg [2]: 204.6 mg/dL
Hb [2]: 12.5 g/dL
Ht [2]: 37.7%
Lym [2]: 71.6%
MCH [2]: 21.6 pg
MCHC [2]: 33.1%
MCV [2]: 65.1 fL
Mono [2]: 8.6%
Neu [2]: 18.6%
PT [2]: 12.2 s
Plat [2]: 106.5 x10_4/uL
RBC [2]: 579 x10_4/ul
Ret [2]: 7.8%
WBC [2]: 84.2 x10_2/uL
KIDNEY_L [2]: 1 g
KIDNEY_R [2]: 1 g
KIDNEY_TOTAL [2]: 2 g
LIVER [2]: 9.4 g
ALP [2]: 868.4 IU/L
ALT [2]: 30.8 IU/L
AST [2]: 63.8 IU/L
BUN [2]: 8.2 mg/dL
CRE [2]: 0.5 mg/dL
Ca [2]: 10.5 mg/dL
DBIL [2]: 0.016 mg/dL
GLC [2]: 211 mg/dL
IP [2]: 10.6 mg/dL
K [2]: 4.5 meq/L
LDH [2]: 166.6 IU/L
Na [2]: 139.6 meq/L
PL [2]: 135.2 mg/dL
RALB [2]: 3.7 g/dL
TBIL [2]: 0.4 mg/dL
TC [2]: 77.8 mg/dL
TG [2]: 19.6 mg/dL
TP [2]: 5.4 g/dL
gamma-GTP [2]: 2.6 IU/L
TERMINAL_BW [3]: 210.8 g
APTT [3]: 16.3 s
Bas [3]: 0%
Eos [3]: 0.4%
Fbg [3]: 215.6 mg/dL
Hb [3]: 12.5 g/dL
Ht [3]: 38.3%
Lym [3]: 76.8%
MCH [3]: 21 pg
MCHC [3]: 32.8%
MCV [3]: 64.1 fL
Mono [3]: 7.2%
Neu [3]: 15.6%
PT [3]: 12.1 s
Plat [3]: 110.2 x10_4/uL
RBC [3]: 598.4 x10_4/ul
Ret [3]: 7.3%
WBC [3]: 80.7 x10_2/uL
KIDNEY_L [3]: 1 g
KIDNEY_R [3]: 1 g
KIDNEY_TOTAL [3]: 2 g
LIVER [3]: 9.4 g
ALP [3]: 850.6 IU/L
ALT [3]: 31.6 IU/L
AST [3]: 61.2 IU/L
BUN [3]: 9.6 mg/dL
CRE [3]: 0.5 mg/dL
Ca [3]: 10.6 mg/dL
DBIL [3]: 0.018 mg/dL
GLC [3]: 223.4 mg/dL
IP [3]: 9.8 mg/dL
K [3]: 4.2 meq/L
LDH [3]: 144.8 IU/L
Na [3]: 141.4 meq/L
PL [3]: 155.2 mg/dL
RALB [3]: 3.7 g/dL
TBIL [3]: 0.4 mg/dL
TC [3]: 84 mg/dL
TG [3]: 28.4 mg/dL
TP [3]: 5.4 g/dL
gamma-GTP [3]: 1.2 IU/L
TERMINAL_BW [4]: 217.8 g
APTT [4]: 16.1 s
Bas [4]: 0%
Eos [4]: 1%
Fbg [4]: 209 mg/dL
Hb [4]: 13.5 g/dL
Ht [4]: 40.5%
Lym [4]: 84.4%
MCH [4]: 21.5 pg
MCHC [4]: 33.4%
MCV [4]: 64.6 fL
Mono [4]: 4.6%
Neu [4]: 10%
PT [4]: 12.2 s
Plat [4]: 125.1 x10_4/uL
RBC [4]: 628 x10_4/ul
Ret [4]: 7.3%
WBC [4]: 102 x10_2/uL
KIDNEY_L [4]: 1 g
KIDNEY_R [4]: 1 g
KIDNEY_TOTAL [4]: 2.1 g
LIVER [4]: 10.9 g
ALP [4]: 952.2 IU/L
ALT [4]: 35.4 IU/L
AST [4]: 62.4 IU/L
BUN [4]: 21.4 mg/dL
CRE [4]: 0.5 mg/dL
Ca [4]: 11.2 mg/dL
DBIL [4]: 0.022 mg/dL
GLC [4]: 210.8 mg/dL
IP [4]: 9.8 mg/dL
K [4]: 4.5 meq/L
LDH [4]: 166.8 IU/L
Na [4]: 140.4 meq/L
PL [4]: 172.6 mg/dL
RALB [4]: 4.2 g/dL
TBIL [4]: 0.3 mg/dL
TC [4]: 91.4 mg/dL
TG [4]: 97.8 mg/dL
TP [4]: 6.1 g/dL
gamma-GTP [4]: 1.4 IU/L
